Where two headings read alike, the source gives them in different places.
Columns and labels:
[1] = system: A549 cell; experiment: Evaluation of PGE2 production inhibitory action using A549 cell (IL-1β stimulated); assay type: cell-based, human
Outline: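 A549 cells (human lung cancer) in F-12K with 2% FBS were preincubated with test article for 30 min, then stimulated with IL-1β (1 ng/mL final) for 18 hr at 37 °C; 0.5% DMSO final. Supernatant PGE2 was measured by HTRF against a standard curve; inhibition is relative to vehicle and unstimulated blank wells.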

[2] = target: T1, human mPGES-1 (Homo sapiens, UniProt O14684); experiment: Evaluation of human mPGES-1 enzyme inhibitory activity (HTRF measurement of PGE2); assay type: biochemical; details: IC50 value; microsome fraction of CHO-S cells expressing human mPGES-1, PGH2 substrate, PGE2 by HTRF; read-out: humans mPGES-1 enzyme inhibitory activity
T1 construct: made in house; host or cells: Chinese hamster ovary-derived cells (FreeStyle CHO-S), transient transfection of pcDNA3.1(+)/human mPGES-1; microsome fraction
T1 sequence (O14684 1-152): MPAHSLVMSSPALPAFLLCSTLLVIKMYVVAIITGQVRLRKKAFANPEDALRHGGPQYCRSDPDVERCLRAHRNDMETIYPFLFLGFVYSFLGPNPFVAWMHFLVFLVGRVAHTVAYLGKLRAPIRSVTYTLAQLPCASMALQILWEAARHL
Outline: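 Enzyme source was a microsome fraction from CHO-S cells transfected with human mPGES-1, diluted to 5 μg/mL protein in reduced GSH (12.5 mmol/L KPB), preincubated with compound for 10 min at room temperature with 2% final DMSO. Reaction started with PGH2 and run 45 seconds at room temperature. PGE2 measured by HTRF.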

[3] = Homo sapiens, A549, 18 h, IC50 value, A549 cell, recombinant IL-1β 1 ng/mL, 18 hr, PGE2 in supernatant, read-out: cell PGE2 production inhibitory activity
[4] = Homo sapiens, A549, A549 cell, recombinant human IL-1β stimulation, read-out: cell PGE2 production inhibitory activity (IC50 value)
[5] = A549 cell, recombinant human IL-1β stimulation, read-out: cell PGE2 production inhibitory activity (IC50 value)

Compound | IC50 [1, 3] [nM] | IC50 [2] [nM] | IC50 [1, 4] [nM] | IC50 [1, 5] [nM]
CCC[C@@H](C)Oc1ccc(-c2nc(O)nc(-c3cc(CNC(=O)C(C)(C)C(F)(F)F)ccc3Cl)n2)cn1 [Example 25, N-(4-chloro-3-{4-hydroxy-6-[6-((R)-1-methylbutoxy)pyridin-3-yl]-1,3,5-triazin-2-yl}benzyl)-3,3,3-trifluoro-2,2-dimethylpropionamide] | 2.9 | 3.1 | – | –
COC1(C(=O)NCc2ccc(Cl)c(-c3nc(O)nc(-c4ccc(Cl)c(C(C)C)c4)n3)c2)CCCCC1 [Example 57] | 4.5 | 2.9 | – | –
CC(C)(C)c1cccc(-c2nc(O)nc(-c3cc(CNC(=O)C(C)(C(F)(F)F)C(F)(F)F)ccc3Cl)n2)c1 [Example 91] | – | 4.6 | 4 | –
CC(C)(C)c1cccc(-c2nc(O)nc(-c3cc(CNC(=O)C4(CF)CCCCCC4)ccc3Cl)n2)c1 [Example 112] | – | 3.3 | 24 | –
CCC(OC)(C(=O)NCc1ccc(Cl)c(-c2nc(O)nc(-c3ccc(Cl)c(C(C)C)c3)n2)c1)C(F)(F)F (centres unmarked) [Example 137] | – | 4.7 | 2.6 | –
COc1ncc(-c2nc(O)nc(-c3cc(CNC(=O)C4(C(F)(F)F)CCCCC4)ccc3Cl)n2)cc1C(C)C [Example 62] | – | 1 | 50 | –
CCC(OC)(C(=O)NCc1ccc(Cl)c(-c2nc(O)nc(-c3cccc(C(C)C)c3)n2)c1)C(F)(F)F (single isomer, unassigned) [Example 134] | – | 1.7 | – | 19
CCCCCCOc1ccc(-c2nc(O)nc(-c3cc(CNC(=O)C(CC)(CC)OC)ccc3Cl)n2)cn1 [Example 82] | – | 7.2 | 2.2 | –
CCC[C@H](C)Oc1ccc(-c2nc(O)nc(-c3cc(CNC(=O)C(CC)(OC)C(F)(F)F)ccc3Cl)n2)cn1 (single isomer, unassigned) [Example 145] | – | 4.5 | – | 1.7
CCC[C@@H](C)Oc1ccc(-c2nc(O)nc(-c3cc(CNC(=O)C(C)(C)OC)ccc3Cl)n2)cn1 [Example 78] | – | 1.2 | 9.2 | –

More lines, in order of falling IC50 [2], values ahead:

IC50 [1, 3] [nM] | IC50 [2] [nM] | IC50 [1, 4] [nM] | IC50 [1, 5] [nM] | Compound
– | 14 | 3.8 | – | CCC[C@H](C)Oc1ccc(-c2nc(O)nc(-c3cc(CNC(=O)C4(CF)CCCCCC4)ccc3Cl)n2)cn1 [Example 141]
– | 10 | 0.8 | – | CCC[C@H](C)Oc1ccc(-c2nc(O)nc(-c3cc(CNC(=O)C4(C(F)(F)F)CCCC4)ccc3Cl)n2)cn1 [Example 140]
2.4 | 7.2 | – | – | CCCCCCOc1ccc(-c2nc(O)nc(-c3cc(CNC(=O)C(C)(C)C(F)(F)F)ccc3Cl)n2)cn1 [Example 23]
– | 4.9 | 3.5 | – | CCCCCCOc1ccc(-c2nc(O)nc(-c3cc(CNC(=O)C(C)(C)C(F)F)ccc3Cl)n2)cn1 [Example 85]
57 | 3.9 | – | – | CC(C)c1cccc(-c2nc(O)nc(-c3cc(CNC(=O)C4(F)CCCCC4)ccc3Cl)n2)c1 [Example 39]
– | 2.8 | 3.9 | – | CC(C)(C)c1cc(-c2nc(O)nc(-c3cc(CNC(=O)C(C)(C)C(F)(F)F)ccc3Cl)n2)ccc1F [Example 67]
– | 1.8 | 2.1 | – | CCC[C@H](C)Oc1ccc(-c2nc(O)nc(-c3cc(CNC(=O)C(C)(C)C(F)(F)F)ccc3Cl)n2)cn1 [Example 86]
– | 1.5 | 15 | – | CCC[C@H](C)Oc1ccc(-c2nc(O)nc(-c3cc(CNC(=O)C(C)(C)CF)ccc3Cl)n2)cn1 [Example 105]
150 | 1 | – | – | COc1ncc(-c2nc(O)nc(-c3cc(CNC(=O)C(C)(C)C(F)(F)F)ccc3Cl)n2)cc1C(C)C [Example 58]
68 | 1 | – | – | CCCC(C)(C)C(=O)NCc1ccc(Cl)c(-c2nc(O)nc(-c3cccc(C(C)C)c3)n2)c1 [Example 7]
– | 0.8 | 61 | – | CC(C)c1cccc(-c2nc(O)nc(-c3cc(CNC(=O)C4(C(F)F)CCCC4)ccc3Cl)n2)c1 [Example 96]
40 | 0.7 | – | – | CCOc1ccc(-c2nc(O)nc(-c3cc(CNC(=O)C4(C(F)(F)F)CCCC4)ccc3Cl)n2)cn1 [Example 32]

Source: patent publication US12492182B2, “Hydroxytriazine compounds and pharmaceutical use thereof” (Japan Tobacco Inc., priority 2015, dated 2025)
